PMC10907609, “Structural and functional characterization of the endogenous agonist for orphan receptor GPR3” (Cell Research, 2024)

How the values were obtained:
GPR3 [1] = molecular target: T1, GPR3 (Homo sapiens, UniProt P46089); test: cell-based cAMP Glo-Sensor assay (no significant activity in purified GTP turnover assay)
Target sequence in this assay (P46089 whole entry): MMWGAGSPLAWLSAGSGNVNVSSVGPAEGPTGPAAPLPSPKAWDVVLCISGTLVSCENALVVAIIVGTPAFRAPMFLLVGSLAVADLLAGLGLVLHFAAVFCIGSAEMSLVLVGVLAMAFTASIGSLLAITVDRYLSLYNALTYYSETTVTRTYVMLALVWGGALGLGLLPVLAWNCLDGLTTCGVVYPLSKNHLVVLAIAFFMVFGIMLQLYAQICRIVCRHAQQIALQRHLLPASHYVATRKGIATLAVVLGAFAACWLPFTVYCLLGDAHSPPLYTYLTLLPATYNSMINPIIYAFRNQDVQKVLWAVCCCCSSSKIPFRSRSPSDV

GPR3 [2] = molecular target: T1, GPR3; test: cryo-EM structure ([…] Å), SPR, MS of co-purified ligand; GTP turnover on purified complex; EC50 from cell-based cAMP Glo-Sensor assay; design: GPR3–Gs–scFv16 complex; with Gs heterotrimer (scFv16-stabilised)
Target sequence in this assay (P46089 whole entry): as above
Target sequence in this assay (P63092 2-394 partner): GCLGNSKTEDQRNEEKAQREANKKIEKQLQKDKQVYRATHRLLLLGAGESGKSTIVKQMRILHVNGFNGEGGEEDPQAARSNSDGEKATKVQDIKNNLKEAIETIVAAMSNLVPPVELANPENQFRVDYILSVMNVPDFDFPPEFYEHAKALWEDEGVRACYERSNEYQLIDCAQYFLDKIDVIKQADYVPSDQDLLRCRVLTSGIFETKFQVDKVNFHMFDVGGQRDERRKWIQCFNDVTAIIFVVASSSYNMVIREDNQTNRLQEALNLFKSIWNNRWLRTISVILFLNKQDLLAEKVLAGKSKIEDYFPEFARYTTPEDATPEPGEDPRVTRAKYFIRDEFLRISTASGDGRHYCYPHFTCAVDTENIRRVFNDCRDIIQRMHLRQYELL
Target sequence in this assay (P62873 2-340 partner): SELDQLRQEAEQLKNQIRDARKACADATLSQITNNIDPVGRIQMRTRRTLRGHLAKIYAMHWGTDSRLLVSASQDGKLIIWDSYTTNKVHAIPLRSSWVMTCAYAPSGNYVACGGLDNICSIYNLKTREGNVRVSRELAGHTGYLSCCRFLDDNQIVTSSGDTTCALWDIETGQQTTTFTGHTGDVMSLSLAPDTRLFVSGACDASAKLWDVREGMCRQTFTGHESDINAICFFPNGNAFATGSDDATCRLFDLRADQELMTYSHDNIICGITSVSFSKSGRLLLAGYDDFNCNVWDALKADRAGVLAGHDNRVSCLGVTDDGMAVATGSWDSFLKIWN
Target sequence in this assay (P59768 2-68 partner): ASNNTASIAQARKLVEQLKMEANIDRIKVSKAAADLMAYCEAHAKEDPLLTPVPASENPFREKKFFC

Row | EC50 (GPR3 [1]) | EC50 (GPR3 [2]) | SMILES
1 | 5.6 µM | – | CCCCCCCC/C=C\CCCCCCCC(N)=O [oleamide]
2 | – | 2.5 µM | CCCCCCCC/C=C\CCCCCCCC(=O)NCCO [OEA, oleoylethanolamide]
